The text below walks through data of patent publication US5962502A, “Polyamidic acid derivatives with antigastrin activity, a method for their preparation, and their pharmaceutical use” (priority 1993, dated 1999).

The term IC50 denotes the concentration needed to halve the response being measured. A lower IC50 goes with greater potency in that assay.

One experiment concerns the target T1, central CCK-B receptor (Cavia porcellus, UniProt H0VZC5).
T1 construct: Cerebral cortices of male white guinea-pigs were thus used; from tissue; host or cells: cerebral cortex membranes of male white guinea-pigs
T1 sequence (H0VZC5 1-426): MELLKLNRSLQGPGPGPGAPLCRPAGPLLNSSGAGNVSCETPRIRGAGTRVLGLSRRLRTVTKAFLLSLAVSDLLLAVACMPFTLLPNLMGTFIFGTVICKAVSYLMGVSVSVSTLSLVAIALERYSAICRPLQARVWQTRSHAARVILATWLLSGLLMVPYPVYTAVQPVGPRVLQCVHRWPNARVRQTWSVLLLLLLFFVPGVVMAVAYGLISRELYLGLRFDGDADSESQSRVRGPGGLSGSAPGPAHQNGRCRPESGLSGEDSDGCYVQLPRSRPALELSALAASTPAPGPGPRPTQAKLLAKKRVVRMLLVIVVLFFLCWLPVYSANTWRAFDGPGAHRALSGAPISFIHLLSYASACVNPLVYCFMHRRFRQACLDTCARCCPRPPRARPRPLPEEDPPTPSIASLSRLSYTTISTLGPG
The experiment is described as follows: Inhibition of the binding of [3-H][N-methyl-N-leucine]CCK-8 to guinea-pig cortical membranes. The settings on record: for times more active than the corresponding diastereoisomer at the carbon atom (**): binding, guinea-pig cortex; for IC50: 150 minutes at 25° C. In outline:
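Male guinea-pig cerebral cortex membranes (about 300 mcg protein/ml) incubated with non-sulphated [3-H]-labelled CCK-8 tracer and compound 150 minutes at 25° C. Pellet radioactivity counted by liquid scintillation; nonspecific binding defined with 5.10^-6 M CCK-8.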

In experiment [1] the target is T2, gastrin receptors or type-B cholecystokinin (CCK-B) receptors (Oryctolagus cuniculus, UniProt P46627).
T2 construct: Rabbit gastric mucous-membrane cells were prepared by conventional techniques; endogenous in cells; host or cells: freshly isolated rabbit gastric mucosal cells, enriched by elutriation to about 70% parietal cells
T2 sequence (P46627 1-452): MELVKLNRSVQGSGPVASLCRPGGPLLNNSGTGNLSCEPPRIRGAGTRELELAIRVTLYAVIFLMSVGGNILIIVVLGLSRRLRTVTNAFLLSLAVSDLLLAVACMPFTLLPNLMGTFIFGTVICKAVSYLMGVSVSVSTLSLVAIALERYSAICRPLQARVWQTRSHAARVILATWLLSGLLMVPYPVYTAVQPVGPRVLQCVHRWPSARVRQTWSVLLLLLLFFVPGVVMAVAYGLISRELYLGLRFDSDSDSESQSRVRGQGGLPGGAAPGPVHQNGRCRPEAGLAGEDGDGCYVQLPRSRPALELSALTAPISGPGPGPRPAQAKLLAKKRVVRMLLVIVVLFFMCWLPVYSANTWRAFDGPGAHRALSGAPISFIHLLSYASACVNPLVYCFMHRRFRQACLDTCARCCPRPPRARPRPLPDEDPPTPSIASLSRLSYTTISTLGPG
Briefly: Inhibition of the gastrin-induced increase of cytosolic calcium in rabbit gastric mucous-membrane cells (Fura 2). The conditions noted are these: for Ratio IC50 Binding cortex / IC50 (gastric mucous cells): binding values taken from Table 3; for CCK-B-antagonistic activity IC50 (II): data taken from Table 4 (rabbit gastric mucous cells), reprinted in Table 6; for IC50, inhibition of the increase of cytosolic calcium: rabbit gastric mucous cells enriched in parietal cells, gastrin 5×10^-8. Type of experiment: cell-based. In outline: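 Enzymatically dispersed (collagenase/pronase) rabbit gastric mucosal cells, loaded with Fura 2, were suspended at 0.8×10^6/ml in HEPES-buffered saline at 37 °C with stirring. Gastrin-induced cytosolic Ca²⁺ rise was measured with and without compound by fluorescence (excitation 340/380 nm, emission 505 nm).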

The subject of experiment [2] is acid secretion induced by pentagastrin. Briefly: Acid secretion induced by pentagastrin in the anaesthetized rat. Type of experiment: in vivo. The conditions noted are these: for ED50: iv, 1 h, I.V. bolus, pentagastrin 30 mcg/kg/h, read-out: Activity (ID50), inhibition of the acid secretion induced by pentagastrin; for antigastrin activity relative to the diastereoisomer at the carbon atom (**): pentagastrin-induced acid secretion.

Several values for one entry are separate records, joined by “and”; a condition that tells them apart may be missing. Equal entries are not always repeated.

With `O=C(CC[C@@H](NC(=O)c1cc(Cl)cc(Cl)c1)C(=O)N1CCC2(CCCC2)CC1)N[C@H](Cc1ccccc1)C(=O)O` [Compound 9, (R,R)-1[(1-carboxy-2-phenylethyl)amino]-1 oxo-5-(8-azaspiro[4.5]decan-8-yl)-4-(3,5-dichloro-benzoylamino)-5-oxopentanoic acid], at central CCK-B receptor, the “times more active than the corresponding diastereoisomer at the carbon atom (**)” value was “about 5 times”. Besides, the IC50 on central CCK-B receptor (guinea-pig cortical membranes) was 150 nM. For the same compound, in experiment [1], the “Ratio IC50 Binding cortex / IC50 (gastric mucous cells)” value came to 3.0; the “CCK-B-antagonistic activity IC50 (II)” value worked out at 50 nM; the “IC50, inhibition of the increase of cytosolic calcium” value was 50 nM. In experiment [2], the ED50 was 12.3 mg/kg and 22.6 µmol/kg; the “antigastrin activity relative to the diastereoisomer at the carbon atom (**)” value is on record as “about twice”.
As for `O=C(CC[C@@H](NC(=O)c1cc(Cl)cc(Cl)c1)C(=O)N1CCC2(CCCC2)CC1)N[C@H](Cc1c[nH]c2ccccc12)C(=O)O` [Compound 21], the “times more active than the corresponding diastereoisomer at the carbon atom (**)” value on central CCK-B receptor was “about 5 times”. Besides, on central CCK-B receptor (guinea-pig cortical membranes), the “inhibition of the binding of [N-methyl-N-leucine]CCK-8, result in words” value is “potent inhibitors” and the concentration for half-maximal inhibition (IC50) came out at 40 nM. Further, in experiment [1], the “Ratio IC50 Binding cortex / IC50 (gastric mucous cells)” value is 4.0; the “CCK-B-antagonistic activity IC50 (II)” value turned out to be 10 nM; the “IC50, inhibition of the increase of cytosolic calcium” value was determined as 10 nM. For the same compound, the “IC50 order of magnitude, peripheral antigastrin activity” value in experiment [1] (rabbit gastric mucous cells) is given as “nanomolar order of magnitude”. Also, in experiment [2], the ED50 is 7.9 mg/kg and 12.6 µmol/kg; the “antigastrin activity relative to the diastereoisomer at the carbon atom (**)” value was “almost the same antigastrin activity”.
